Here are results for 22 compounds from patent publication US10590105B2, “1,3-dihydroxy-phenyl derivatives useful as immunomodulators” (BRISTOL-MYERS SQUIBB COMPANY, priority 2016, dated 2020).

Where two headings read alike, the source gives them in different places.

For this test, the target named is PD-1/PD-L1 interaction (PD-1-Ig / PD-L1-His) (Homo sapiens (Human), UniProt Q9NZQ7). The experiment in a line: PD-1/PD-L1 Homogenous Time-Resolved Fluorescence (HTRF) binding assay. As to conditions: PD-1/PD-L1 HTRF binding assay, read-out: Range or IC50. From the text:
The ability of the compounds of formula (I) to bind to PD-L1 was investigated using a PD-1/PD-L1 Homogenous Time-Resolved Fluorescence (HTRF) binding assay.
Homogenous Time-Resolved Fluorescence (HTRF) Binding Assay.
The interaction of PD-1 and PD-L1 can be assessed using soluble, purified preparations of the extracellular domains of the two proteins. The PD-1 and PD-L1 protein extracellular domains were expressed as fusion proteins with detection tags, for PD-1, the tag was the Fc portion of Immunoglobulin (PD-1-Ig) and for PD-L1 it was the 6 histidine motif (PD-L1-His). All binding studies were performed in an HTRF assay buffer consisting of dPBS supplemented with 0.1% […] bovine serum albumin and 0.05% (v/v) Tween-20. For the h/PD-L1-His binding assay, inhibitors were pre-incubated with PD-L1-His (10 nM final) for 15 m in 4 μl of assay buffer, followed by addition of PD-1-Ig (20 nM final) in 1 μl of assay buffer and further incubation for 15 m. HTRF detection was achieved using europium crypate-labeled anti-Ig (1 nM final) and allophycocyanin (APC) labeled anti-His (20 nM final). Antibodies were diluted in HTRF detection buffer and 5 μl was dispensed on top of the binding reaction. The reaction mixture was allowed to equilibrate for 30 minutes and the resulting signal (665 nm/620 nm ratio) was obtained using an EnVision fluorometer. Additional binding assays were established between the human proteins PD-1-Ig/PD-L2-His (20 & 5 nM, respectively) and CD80-His/PD-L1-Ig (100 & 10 nM, respectively).
Recombinant Proteins. Human PD-1 (25-167) with a C-terminal human Fc domain of immunoglobulin G (Ig) epitope tag [hPD-1 (25-167)-3S-IG] and human PD-L1 (18-239) with a C-terminal His epitope tag [hPD-L1(18-239)-TVMV-His] were expressed in HEK293T cells and purified sequentially by ProteinA affinity chromatography and size exclusion chromatography. Human PD-L2-His and CD80-His was obtained through commercial sources.
Ranges are as follows: A=0.001 to 0.010 micromolar; B=0.011 to 0.150 micromolar; C=0.151 to 10 micromolar.
(In general: TR-FRET usually uses a lanthanide donor and a delayed reading to cut background.)

PD-1/PD-L1 interaction (PD-1-Ig / PD-L1-His), sequence (Q9NZQ7 other isoform, or with tags, fused parts or gaps): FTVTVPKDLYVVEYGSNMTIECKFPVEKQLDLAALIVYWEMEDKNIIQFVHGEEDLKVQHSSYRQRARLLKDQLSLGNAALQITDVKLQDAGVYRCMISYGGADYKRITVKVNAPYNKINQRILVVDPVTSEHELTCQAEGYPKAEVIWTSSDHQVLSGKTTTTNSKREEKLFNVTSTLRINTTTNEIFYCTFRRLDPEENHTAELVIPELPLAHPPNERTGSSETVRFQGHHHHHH

The term IC50 denotes the concentration that gives 50% inhibition. For “2-((5-chloro-2-((5-cyanopyridin-3-yl)methoxy)-4-((3-(1-(2-(dimethylamino)ethyl)-1H-benzo[d]imidazol-6-yl)-2-methylbenzyl)oxy)benzyl)amino)-2-methylpropanoic acid and 2-((5-chloro-2-((5-cyanopyridin-3-yl)methoxy)-4-((3-(1-(2-(dimethylamino)ethyl)-1H-benzo[d]imidazol-5-yl)-2-methylbenzyl)oxy)benzyl)amino)-2-methylpropanoic acid [Example 1026]”, the IC50 (value given as range class) fell in the range of 151 to 10000 nM.

Regarding `Cc1c(COc2cc(OCc3cncc(C#N)c3)c(CN[C@](C)(CO)C(=O)O)cc2Cl)cccc1-c1ccc2cccnc2c1` [Example 1001, (R)-2-((5-chloro-2-((5-cyanopyridin-3-yl)methoxy)-4-((2-methyl-3-(quinolin-7-yl)benzyl)oxy)benzyl)amino)-3-hydroxy-2-methylpropanoic acid], the half-inhibitory concentration (IC50) (value given as range class) is 11 to 150 nM. On the same count and under the same terms, the result for `Cc1c(COc2cc(OCc3cncc(C#N)c3)c(CN[C@](C)(CO)C(=O)O)cc2Cl)cccc1-c1cnc2ccccc2c1` [Example 1002, (R)-2-((5-chloro-2-((5-cyanopyridin-3-yl)methoxy)-4-((2-methyl-3-(quinolin-3-yl)benzyl)oxy)benzyl)amino)-3-hydroxy-2-methylpropanoic acid] reads 151 to 10000 nM; that for `Cc1c(COc2cc(OCc3cncc(C#N)c3)c(CN3CCCC[C@H]3C(=O)O)cc2Cl)cccc1-c1cnc2ccccc2c1` [Example 1003, (S)-1-(5-chloro-2-((5-cyanopyridin-3-yl)methoxy)-4-((2-methyl-3-(quinolin-3-yl)benzyl)oxy)benzyl) piperidine-2-carboxylic acid], 151 to 10000 nM. Turning to `Cc1c(COc2cc(OCc3cncc(C#N)c3)c(CN[C@](C)(CO)C(=O)O)cc2Cl)cccc1-c1ccc2ccccc2n1` [Example 1004, (R)-2-((5-chloro-2-((5-cyanopyridin-3-yl)methoxy)-4-((2-methyl-3-(quinolin-2-yl)benzyl)oxy)benzyl)amino)-3-hydroxy-2-methylpropanoic acid], the IC50 (value given as range class) fell in the range of 151 to 10000 nM. For the compound `Cc1c(COc2cc(OCc3cncc(C#N)c3)c(CN[C@](C)(CO)C(=O)O)cc2Cl)cccc1-c1ccc2ncccc2c1` [Example 1005, (R)-2-((5-chloro-2-((5-cyanopyridin-3-yl)methoxy)-4-((2-methyl-3-(quinolin-6-yl)benzyl)oxy)benzyl)amino)-3-hydroxy-2-methylpropanoic acid], where the note is “value given as range class”, the IC50 was in the range of 151 to 10000 nM. On to `Cc1c(COc2cc(OCc3cncc(C#N)c3)c(CN[C@](C)(CO)C(=O)O)cc2Cl)cccc1-c1cc2ccccc2cn1` [Example 1007, (R)-2-((5-chloro-2-((5-cyanopyridin-3-yl)methoxy)-4-((3-(isoquinolin-3-yl)-2-methylbenzyl)oxy)benzyl)amino)-3-hydroxy-2-methylpropanoic acid], for which, where the note is “value given as range class”, the IC50 lay within 151 to 10000 nM. In the case of `Cc1c(COc2cc(OCc3cncc(C#N)c3)c(CN[C@](C)(CO)C(=O)O)cc2Cl)cccc1-c1ccc2ccncc2c1` [Example 1008, (R)-2-((5-chloro-2-((5-cyanopyridin-3-yl)methoxy)-4-((3-(isoquinolin-7-yl)-2-methylbenzyl)oxy)benzyl)amino)-3-hydroxy-2-methylpropanoic acid], the IC50 (value given as range class) was 11 to 150 nM. On the same count and under the same terms, the result for `Cc1c(COc2cc(OCc3cncc(C#N)c3)c(CN[C@](C)(CO)C(=O)O)cc2Cl)cccc1-c1ccc2cnccc2c1` [Example 1009, (R)-2-((5-chloro-2-((5-cyanopyridin-3-yl)methoxy)-4-((3-(isoquinolin-6-yl)-2-methylbenzyl)oxy)benzyl)amino)-3-hydroxy-2-methylpropanoic acid] reads 11 to 150 nM. As for `Cc1c(COc2cc(OCc3cncc(C#N)c3)c(CN[C@](C)(CO)C(=O)O)cc2Cl)cccc1-c1cnc2ccc(Br)cc2n1` [Example 1010, (R)-2-((4-((3-(7-bromoquinoxalin-2-yl)-2-methylbenzyl)oxy)-5-chloro-2-((5-cyanopyridin-3-yl)methoxy)benzyl)amino)-3-hydroxy-2-methylpropanoic acid], the 50% inhibitory concentration (IC50) (value given as number) stood at 1570 nM. In the case of `Cc1c(COc2cc(OCc3cncc(C#N)c3)c(CN[C@](C)(CO)C(=O)O)cc2Cl)cccc1-c1ccc2ncsc2c1` [Example 1011, (R)-2-((4-((3-(benzo[d]thiazol-6-yl)-2-methylbenzyl)oxy)-5-chloro-2-((5-cyanopyridin-3-yl)methoxy)benzyl)amino)-3-hydroxy-2-methylpropanoic acid], where the note is “value given as range class”, the IC50 lay within 11 to 150 nM.

`Cc1c(COc2cc(OCc3cncc(C#N)c3)c(CN[C@](C)(CO)C(=O)O)cc2Cl)cccc1-c1ccc2ocnc2c1` [Example 1012, (R)-2-((4-((3-(benzo[d]oxazol-5-yl)-2-methylbenzyl)oxy)-5-chloro-2-((5-cyanopyridin-3-yl)methoxy)benzyl)amino)-3-hydroxy-2-methylpropanoic acid]: under “value given as range class”, the IC50 lay within 1 to 10 nM.

Turning to `Cc1c(COc2cc(OCc3cncc(C#N)c3)c(CN[C@](C)(CO)C(=O)O)cc2Cl)cccc1-c1ccc2occc2c1` [Example 1013, (R)-2-((4-((3-(benzofuran-5-yl)-2-methylbenzyl)oxy)-5-chloro-2-((5-cyanopyridin-3-yl)methoxy)benzyl)amino)-3-hydroxy-2-methylpropanoic acid], the IC50 (value given as range class) lay in the range of 11 to 150 nM.

Turning to `Cc1c(COc2cc(OCc3cncc(C#N)c3)c(CN[C@@H](CCCNC(=N)N)C(=O)O)cc2Cl)cccc1-c1ccc2occc2c1` [Example 1014, (S)-2-((4-((3-(benzofuran-5-yl)-2-methylbenzyl)oxy)-5-chloro-2-((5-cyanopyridin-3-yl)methoxy)benzyl)amino)-5-guanidinopentanoic acid], the IC50 (value given as range class) fell in the range of 151 to 10000 nM. With `Cc1c(COc2cc(OCc3cncc(C#N)c3)c(CNC(C)(C)C(=O)O)cc2Cl)cccc1-c1ccc2occc2c1` [Example 1015, 2-((4-((3-(benzofuran-5-yl)-2-methylbenzyl)oxy)-5-chloro-2-((5-cyanopyridin-3-yl)methoxy)benzyl)amino)-2-methylpropanoic acid], the IC50 (value given as range class) lay within 11 to 150 nM.

Turning to `Cc1c(COc2cc(OCc3cncc(C#N)c3)c(CNC(C)(C)C(=O)O)cc2Cl)cccc1-c1ccc2ncoc2c1` [Example 1016, 2-((4-((3-(benzo[d]oxazol-6-yl)-2-methylbenzyl)oxy)-5-chloro-2-((5-cyanopyridin-3-yl)methoxy)benzyl)amino)-2-methylpropanoic acid], under “value given as range class”, the IC50 lay in the range of 1 to 10 nM. As to `Cc1c(COc2cc(OCc3cncc(C#N)c3)c(CN[C@](C)(CO)C(=O)O)cc2Cl)cccc1-c1ccc2ncoc2c1` [Example 1017, (R)-2-((4-((3-(benzo[d]oxazol-6-yl)-2-methylbenzyl)oxy)-5-chloro-2-((5-cyanopyridin-3-yl)methoxy)benzyl)amino)-3-hydroxy-2-methylpropanoic acid], the half-maximal inhibitory concentration (IC50) (value given as range class) lay in the range of 11 to 150 nM. `Cc1c(COc2cc(OCc3cncc(C#N)c3)c(CNC(C)(C)C(=O)O)cc2Cl)cccc1-c1ccc2ccoc2c1` [Example 1018, 2-((4-((3-(benzofuran-6-yl)-2-methylbenzyl)oxy)-5-chloro-2-((5-cyanopyridin-3-yl)methoxy)benzyl)amino)-2-methylpropanoic acid]: the IC50 (value given as range class) was in the range of 11 to 150 nM. With `Cc1c(COc2cc(OCc3cncc(C#N)c3)c(CN[C@](C)(CO)C(=O)O)cc2Cl)cccc1-c1ccc2ccoc2c1` [Example 1019, (R)-2-((4-((3-(benzofuran-6-yl)-2-methylbenzyl)oxy)-5-chloro-2-((5-cyanopyridin-3-yl)methoxy)benzyl)amino)-3-hydroxy-2-methylpropanoic acid], under “value given as range class”, the IC50 fell in the range of 1 to 10 nM. Still for that read-out and setting: next, `Cc1c(COc2cc(OCc3cncc(C#N)c3)c(CN3CCC[C@@]3(C)C(=O)O)cc2Cl)cccc1-c1ccc2ccoc2c1` [Example 1020, (S)-1-(4-((3-(benzofuran-6-yl)-2-methylbenzyl)oxy)-5-chloro-2-((5-cyanopyridin-3-yl)methoxy)benzyl)-2-methylpyrrolidine-2-carboxylic acid]: 1 to 10 nM; `Cc1c(COc2cc(OCc3cncc(C#N)c3)c(CN[C@](C)(CO)C(=O)O)cc2Cl)cccc1-c1ccc2scnc2c1` [Example 1021, (R)-2-((4-((3-(benzo[d]thiazol-5-yl)-2-methylbenzyl)oxy)-5-chloro-2-((5-cyanopyridin-3-yl)methoxy)benzyl)amino)-3-hydroxy-2-methylpropanoic acid]: 1 to 10 nM; `Cc1c(COc2cc(OCc3cncc(C#N)c3)c(CNC(C)(C)C(=O)O)cc2Cl)cccc1-c1ccc2scnc2c1` [Example 1022, 2-((4-((3-(benzo[d]thiazol-5-yl)-2-methylbenzyl)oxy)-5-chloro-2-((5-cyanopyridin-3-yl)methoxy)benzyl)amino)-2-methylpropanoic acid]: 11 to 150 nM.
